Our source for the melting point values is a melting point compilation (Tetko et al.; mined from patent text by program, amines drawn as free bases though some values may be those of a salt).

Consider `N#Cc1ccc([N+](=O)[O-])cc1[N+](=O)[O-]`, for which the melting point was 88 to 92 °C. As for `Cc1noc(NS(=O)(=O)c2cc(OCc3ccccc3)ccc2-c2ccc(CC(C)C)cc2)c1C`, the figure is 96 to 101 °C; as for `CC1(O)CCC2(C)C(CCC3C2CCC2(C)C(C(=O)COc4ccc([N+](=O)[O-])cc4)CCC32)C1` (stereo not drawn), 169 to 172 °C. To `CCNc1nc(-c2ccccc2)c(-c2ccc(=O)n(C(C)C)n2)s1` belongs 167 to 169 °C. For `O=C(c1ccccc1)c1c(O)cc(-c2ccccc2)oc1=O`, the melting point fell in the range of 171 to 173 °C.

Turning to `CCN(CC)C(=O)n1cnc(S(=O)(=O)CC2CCC2)n1`, the melting point is 113 to 116 °C. In turn, `O=C(Nc1ccc(Oc2c(Cl)cc(C(F)(F)F)c(Cl)c2Cl)cc1Cl)Nc1nonc1-c1ccccc1` returned a melting point of 209 °C.

Regarding `CCC(NC(C)=O)c1ccc(CN2CCN(c3ccc(F)cc3F)CC2)cc1` (stereo not drawn), the melting point was in the range of 137 to 138 °C. To `Cc1cc2c(cc1CSCC(=O)O)OCO2` belongs 90 to 92 °C. On to `COc1cc(OC)c(N2CCCC2)cc1/C=C/C(=O)c1ccc(S(=O)(=O)NCCCN2CCN(C)CC2)cc1`, for which the melting point lay in the range of 64 to 68 °C.

On to `CC(=O)OC1CSC(Oc2ccc(C)nc2-c2cccnc2)C(OC(C)=O)C1OC(C)=O` (stereo not drawn), for which the melting point fell in the range of 92 to 102 °C. To `Cc1ccccc1N1CCN(CCn2c(=O)[nH]c3ccsc3c2=O)CC1` belongs 212 to 214 °C. To `Cn1nnc(N(Cc2ccccc2)C(=O)C2CCCC2)n1` belongs 54 °C. To `COc1cc(NS(=O)(=O)c2ccc(Cl)cc2)c(C(=O)O)cc1OC` belongs 168 to 169 °C; to `CCC[C@H](CO)Nc1nc(-c2ccc(Br)cc2)cs1`, 61 to 63 °C; to `CCOc1ccc(S(=O)(=O)N2CCN(C)CC2)cc1-c1nc2c([nH]1)c1nncn1c(=O)n2CC`, 248 °C. For the compound `Cc1cc(C(=O)C(C#N)C(=O)Nc2ccc(F)cc2)c(C)n1C` (stereo not drawn), the melting point lay within 171 to 172 °C.

The compound `CC(C)C[C@H](NC(=O)OCC1CCCCC1)C(=O)NC(C)(C)C(=O)c1c(-c2ccccc2)c1=O` yielded a melting point of 42 to 49 °C. Compound `CC(C)NCC(O)COc1ccccc1C1=NN(C)C(=O)CC1` (stereo not drawn) gave a melting point of 82 to 84 °C. As for `CS(=O)(=O)c1ccc(-c2nc(C(F)(F)F)nc(OS(=O)(=O)c3cccc4ccccc34)c2-c2ccccc2)cc1`, the melting point lay within 204 to 206 °C. As for `CC=CC(=O)NCc1ccccc1`, the figure is 112 to 114 °C; as for `CCC(=C(c1ccccc1)c1ccc(C=CCO)cc1)c1ccccc1`, 80 to 83 °C. Turning to `CN1C(=O)C(c2cccc(OCC3CC3)c2)(c2cnn(CC(F)(F)F)c2)N=C1N` (stereo not drawn), the melting point fell in the range of 78 to 80 °C. As for `CCCCCCCCCCCCCCOc1ccc(CN(C(C)=O)c2ccc(CBr)cc2)cc1`, the figure is 46 to 49 °C; as for `CSc1cc(Cl)ccc1C(=O)C(C#N)C(=O)c1cc(C(F)(F)F)cc(C(F)(F)F)c1` (stereo not drawn), 146 to 149 °C. As for `C=CCOc1ccc(S(=O)(=O)c2ccc(OCC=C)cc2)cc1`, the figure is 140 to 142 °C; as for `CCC12CCC3C4CCC(=O)C=C4CCC3C1CCC2OC(O)C(Cl)(Cl)Cl` (stereo not drawn), 175 to 176 °C; as for `O=C(CCN1CCCC1)Nc1cc(-c2nnc(SCc3cccc(F)c3)o2)ccn1`, 114 to 115 °C. To `Cc1nc(-n2ccc(O)cc2=O)sc1C(=O)NCc1cccnc1` belongs 238 to 240 °C; to `Cc1cc2oc(N(N)CCC#N)nc2c(C)c1C`, 143 to 144 °C. For `COc1ccc(C=CCCCCOc2ccc(S(=O)(=O)c3cccc(C(=O)O)c3)cc2CCC(=O)O)cc1`, the melting point was 145 to 148 °C.

With `CCC(O)(CCCCO)C(=O)Nc1ccnc(Br)c1` (stereo not drawn), the melting point is 103 °C. As for `O=C1N(Cc2ccc(C(F)(F)F)o2)c2ccccc2C12COc1cc3c(cc12)OCC3` (stereo not drawn), the figure is 174 to 177 °C; as for `CC(C)N(C(=O)COc1ccc(-c2ccc(C(=O)O)cc2C(F)(F)F)cc1)C(C)C`, 132 to 134 °C. To `O=C1Nc2nnccc2C(=O)C1c1c(F)cc(F)cc1F` (stereo not drawn) belongs greater than 330 °C; to `CSC1=NCCc2nc(C)nn21`, 75.5 to 76.5 °C; to `CC1=NN(c2ccc(C)c(C)c2)C(=O)C1=NNc1cccc(-c2cccc(P(=O)(O)O)c2)c1O`, 144 to 149 °C.

For `COc1nc2cc(Cl)c(Cl)c(N(S(C)(=O)=O)S(C)(=O)=O)c2nc1OC`, the melting point fell in the range of 240 to 244 °C. As for `Cc1nc(C(O)CNC(C)(C)C)ccc1OCc1ccccc1` (stereo not drawn), the figure is 96 to 97 °C. To `N#CCCN(Cc1ccccc1)CC(O)CO` (stereo not drawn) belongs 132 °C; to `COc1cc(C2C3=C(COC3=O)Nc3ccc4nc(C)sc4c32)ccc1O` (stereo not drawn), 293 to 295 °C.

Turning to `O=C1Nc2ccccc2Nc2nc(-c3ccccc3)ncc21`, the melting point lay within 260 to 261 °C. To `CC1CC(=O)NN=C1c1ccc(NN=C(C#N)C#N)cc1` (single isomer, unassigned; (+)) belongs 210 to 214 °C; to `COc1cc(OC)cc(C(=O)NC(=O)Nc2ccc3c(c2)NC(=O)/C3=C\c2[nH]c(C)c(C(=O)O)c2C)c1`, greater than 300 °C; to `N[C@@H](Cc1ccc(F)cc1)[C@H](O)c1ccc(C(F)(F)F)cc1` (racemic), 130 to 131 °C. As for `COc1ccc(-c2ncc(Cc3ccccc3)nc2-c2ccc(OC)cc2)cc1`, the melting point lay within 107 to 109 °C. With `O=C(O)C1=Cc2cc(F)c(F)cc2NC1C(F)(F)F` (stereo not drawn), the melting point lay in the range of 187 to 189 °C. As for `O=[N+]([O-])c1cccc(-n2cnnc2C(F)(F)F)c1`, the figure is 142 °C; as for `O=C(O)c1cc(Oc2ncc(C(F)(F)F)cc2Cl)ccc1[N+](=O)[O-]`, 131 °C. As to `O=c1c(CO)c(-c2ccc(O)cc2)oc2ccccc12`, the melting point was in the range of 234 to 235 °C. As for `CCCCCCOc1ccc(C(=O)NC2CCC(C)(C)C2)cc1` (stereo not drawn), the figure is 82 to 83 °C; as for `C#CCN1CCCc2cccc(CSc3nc4ccccc4[nH]3)c21`, 122 °C; as for `Nc1ncc(Cc2csc3ccccc23)c(N)n1`, 220 to 222 °C.

In turn, `COc1cccc2c(=O)[nH]c(-c3ccccc3)cc12` gave a melting point of 227 to 231 °C. As for `COCc1cc(C(C)(C)C)cc(COC)c1SSc1c(COC)cc(C(C)(C)C)cc1COC`, the figure is 94 to 95 °C.

The compound `COc1ccc(C(=O)Nc2cccc(C3(C#N)CCCC3)c2)cc1OC` returned a melting point of 59 to 61 °C.

For the compound `COc1ccc(C2=NN(CC(=O)c3ccc(Cl)cc3)C(=O)[C@H]3CCCC[C@@H]23)cc1OC` (relative stereo), the melting point lay within 142 to 144 °C. Consider `O=C(O)C1CCCc2[nH]c3ccccc3c21` (stereo not drawn), for which the melting point was in the range of 163 to 165 °C.

`CCOc1cc(OCC)c2c(=O)c(OCC)c(-c3ccccc3)oc2c1` registered a melting point of 111 to 114 °C.

In turn, `Cc1cc(N2CCc3ncccc3C2)nc(N2CCC(F)(F)CC2)c1[N+](=O)[O-]` came in with a melting point of 168 to 169 °C. To `O[C@@H]1CN=C(c2ccc(N3CCOCC3)cc2)O[C@H]1c1ccccc1` (racemic) belongs 150 °C. As for `CCOCc1nc2c(N)nc3ccccc3c2n1NCCCNC(=O)NC(C)C`, the figure is 174 to 177 °C; as for `O=[N+]([O-])c1ccc(-c2nnn(Cc3ccccc3)n2)cc1`, 139 to 141 °C. As for `CCSc1nc(C#N)c(C#N)nc1Cl`, the figure is 55 to 58.5 °C; as for `CCn1nc(C(C)C)c2c1C(=NC#N)NCC(c1ccccc1)=N2`, 222 °C; as for `O=C(c1ccc2cnccc2n1)N1CCc2ccccc2C1`, 98 to 100 °C. The compound `COc1ccc(N2CCN(c3ccc(NC(=S)NC(C)(C)CO)cc3)CC2)cc1` registered a melting point of 222 °C. Regarding `Fc1ccc(F)c(C(Sc2ccc(Cl)cc2)c2ccc(CSc3ccc(Cl)cc3)cn2)c1` (stereo not drawn), the melting point is 87 to 88 °C. To `CC(=O)O[C@H]1C[C@@H](N=O)C(Cl)O[C@@H]1COS(=O)(=O)c1ccc(C)cc1` (stereo partly drawn) belongs 148 to 150 °C; to `NC(=O)CC(O)COC(c1ccccc1)(c1ccccc1)c1ccccc1` (stereo not drawn), 59 to 60 °C. To `COCCOc1ccc(/C=C/C(=O)O)c(Oc2ncc(C(F)(F)F)cc2Cl)c1` belongs 132 °C; to `CC(=O)N(CC=C=CC=c1c(C)c2c(n(-c3ccccc3)c1=O)=NN(c1ccccc1)C2=O)c1ccccc1`, greater than 300 °C; to `O=C(O)c1cc(=O)[nH]c2ccc(I)cc12`, 361 to 363 °C. As for `CC(C)(C)C(=O)c1c[nH]c2ncc(Cl)nc12`, the figure is 209 to 210 °C. For `O=C1C=C(OCCCCCCO)c2ccccc2C1=O`, the melting point lay within 96 to 98 °C.

For `O=C(O)CC[C@H]1O[C@@H](c2ccccc2Cl)c2cc(Cl)ccc2N(Cc2ccccc2)C1=O` (relative stereo), the melting point was 135 to 137 °C. To `CC1(C)CSSC[C@@H](C(=O)O)NC1=O` belongs 160 to 162 °C; to `CN(C)S(=O)(=O)n1cc(-c2ccc(Cl)cc2Cl)nc1C1=NC(=O)C(=O)S1`, 158 °C; to `COc1cccc2c1nnn2C1CCCCC1`, 118 to 120 °C. To `COc1ccc(/C=C(\C#N)Cc2ccccc2)cc1OC1CCCC1` belongs 111 to 112 °C; to `ON=Cc1ccc(OCc2coc(-c3ccccc3)n2)cc1`, 184 to 186 °C. As for `CC1=C(C#N)C(=C(C#N)C#N)OC1(C)c1ccc(Cl)cc1Cl` (stereo not drawn), the figure is 239 to 240 °C; as for `O=C(O)Cc1ccc(OCCCN2CCC(c3cn(CC4CC4)c4ccccc34)CC2)cc1`, 83 to 85 °C. Compound `CC(CCC(O)C(C)(C)O)C1CCC2C3=CC=C4CC(O)CCC4(C)C3CCC21C` (stereo not drawn) displayed a melting point of 216 to 218 °C. As for `NNC1=NCCc2ccccc21`, the figure is 55 to 57 °C; as for `CC(C)[Si](Oc1ccc2c(c1)CN(Nc1ccccn1)C2)(C(C)C)C(C)C`, 95 to 96 °C. To `OCC(Br)c1ccccc1` (stereo not drawn) belongs 38 to 39 °C; to `CC(=O)Nc1ccc(C#N)c(F)c1F`, 175 to 177 °C.

What is called melting point is the temperature of the solid-liquid transition.
